Structures can show the parent of a compound that is named as a salt.
System: Acinetobacter baumannii ATCC17961
Experiment: Antimicrobial susceptibility testing: 90% growth inhibitory concentration (IC90) determination in Iso-Sensitest broth, OD600 growth
Type: cell-based
Settings: Acinetobacter baumannii, ATCC17961, 16 h, read-out: A. baumannii ATCC 17961 IC90 (uM), strain ATCC 17961, OD600 growth over 16 h
Outline: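 Compounds were twofold serially diluted in DMSO across 10 points (e.g. 50 to 0.097 μM final) and inoculated at ~5×10^(5) CFU/ml. Plates incubated at 35±2° C, with OD600 read every 20 minutes over 16 h. IC90 was derived from growth inhibition during logarithmic growth.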

Point of comparison: `Cc1cc(Nc2nccn3c(-c4cn(C)nc4C(F)(F)F)cnc23)ccc1C(=O)NCCNC(=O)[C@@H]1C[C@@H](O)CN1` [Example 456, formic acid; (2S,4R)-4-hydroxy-N-[2-[[2-methyl-4-[[3-[1-methyl-3-(trifluoromethyl)pyrazol-4-yl]imidazo[1,2-a]pyrazin-8-yl]amino]benzoyl]amino]ethyl]pyrrolidine-2-carboxamide], IC90 2.74 µM. Against it:
- CCc1cc(Nc2nccn3c(-c4c[nH]nc4C(F)(F)F)cnc23)ccc1C(=O)NCCCNC(=O)[C@@H]1C[C@@H](O)CN1 [Example 434, (2S,4R)-N-[3-[[2-ethyl-4-[[3-[3-(trifluoromethyl)-1H-pyrazol-4-yl]imidazo[1,2-a]pyrazin-8-yl]amino]benzoyl]amino]propyl]-4-hydroxypyrrolidine-2-carboxamide formate] — 5.9-fold lower, 0.463 µM
- CCc1cc(Nc2nccn3c(-c4c[nH]nc4C(F)(F)F)cnc23)ccc1C(=O)NCCNC(=O)[C@@H]1C[C@@](O)(CC)CN1 [Example 435, (2S,4S)-4-ethyl-N-[2-[[2-ethyl-4-[[3-[3-(trifluoromethyl)-1H-pyrazol-4-yl]imidazo[1,2-a]pyrazin-8-yl]amino]benzoyl]amino]ethyl]-4-hydroxypyrrolidine-2-carboxamide formate] — within 1.5-fold, 2.69 µM
- O=C(N[C@H]1CNC[C@@H]1O)N1CCN(C(=O)c2ccc(Nc3nccn4c(-c5c[nH]nc5C(F)(F)F)cnc34)cc2Cl)CC1 [Example 440, 4-[2-chloro-4-[[3-[3-(trifluoromethyl)-1H-pyrazol-4-yl]imidazo[1,2-a]pyrazin-8-yl]amino]benzoyl]-N-[(3S,4S)-4-hydroxypyrrolidin-3-yl]piperazine-1-carboxamide formate] — 5.5-fold lower, 0.497 µM
- O=C(N[C@@H]1CNC[C@H]1O)N1CCN(C(=O)c2ccc(Nc3nccn4c(-c5c[nH]nc5C(F)(F)F)cnc34)cc2Cl)CC1 [Example 441, 4-[2-chloro-4-[[3-[3-(trifluoromethyl)-1H-pyrazol-4-yl]imidazo[1,2-a]pyrazin-8-yl]amino]benzoyl]-N-[(3R,4R)-4-hydroxypyrrolidin-3-yl]piperazine-1-carboxamide formate] — 4.4-fold lower, 0.617 µM
- Cc1cc(Nc2nccn3c(-c4c[nH]nc4C(F)(F)F)cnc23)ccc1C(=O)NCCCNC(=O)[C@@H]1C[C@@H](O)CN1 [Example 442, formic acid; (2S,4R)-4-hydroxy-N-[3-[[2-methyl-4-[[3-[3-(trifluoromethyl)-1H-pyrazol-4-yl]imidazo[1,2-a]pyrazin-8-yl]amino]benzoyl]amino]propyl]pyrrolidine-2-carboxamide] — 4.4-fold lower, 0.622 µM
- C[C@@]1(O)CN[C@H](C(=O)N2CCN(C(=O)c3ccc(Nc4nccn5c(-c6c[nH]nc6C(F)(F)F)cnc45)cc3Cl)CC2)C1 [Example 443, [2-chloro-4-[[3-[3-(trifluoromethyl)-1H-pyrazol-4-yl]imidazo[1,2-a]pyrazin-8-yl]amino]phenyl]-[4-[(2S,4S)-4-hydroxy-4-methylpyrrolidine-2-carbonyl]piperazin-1-yl]methanone formate] — 3.4-fold lower, 0.81 µM
- Cc1cc(Nc2nccn3c(-c4c[nH]nc4C(F)(F)F)cnc23)ccc1C(=O)NCCNC(=O)[C@@H]1C[C@@H](O)CN1 [Example 444, formic acid; (2S,4R)-4-hydroxy-N-[2-[[2-methyl-4-[[3-[3-(trifluoromethyl)-1H-pyrazol-4-yl]imidazo[1,2-a]pyrazin-8-yl]amino]benzoyl]amino]ethyl]pyrrolidine-2-carboxamide] — 1.9-fold lower, 1.43 µM
- CCc1cc(Nc2nccn3c(-c4cn(C)nc4C(F)(F)F)cnc23)ccc1C(=O)NCCNC(=O)[C@@H]1C[C@@H](O)CN1 [Example 445, (2S,4R)-N-[2-[[2-ethyl-4-[[3-[1-methyl-3-(trifluoromethyl)pyrazol-4-yl]imidazo[1,2-a]pyrazin-8-yl]amino]benzoyl]amino]ethyl]-4-hydroxypyrrolidine-2-carboxamide formate] — 1.9-fold lower, 1.48 µM
- CCc1cc(Nc2nccn3c(-c4cn(C)nc4C(F)(F)F)cnc23)ccc1C(=O)NCCNC(=O)[C@@H]1C[C@@](O)(CC)CN1 [Example 446, (2S,4S)-4-ethyl-N-[2-[[2-ethyl-4-[[3-[1-methyl-3-(trifluoromethyl)pyrazol-4-yl]imidazo[1,2-a]pyrazin-8-yl]amino]benzoyl]amino]ethyl]-4-hydroxypyrrolidine-2-carboxamide formate] — within 1.5-fold, 2.27 µM
- CCc1cc(Nc2nccn3c(-c4cn(C)nc4C(F)(F)F)cnc23)ccc1C(=O)NCCNC(=O)[C@@H]1C[C@](C)(O)CN1 [Example 447, (2S,4S)-N-[2-[[2-ethyl-4-[[3-[1-methyl-3-(trifluoromethyl)pyrazol-4-yl]imidazo[1,2-a]pyrazin-8-yl]amino]benzoyl]amino]ethyl]-4-hydroxy-4-methylpyrrolidine-2-carboxamide formate] — 1.5-fold higher, 4.19 µM
- O=C(c1ccc(Nc2nccn3c(-c4c[nH]nc4C(F)(F)F)cnc23)cc1Cl)N1CCN(C(=O)[C@@H]2C[C@@H](O)CN2)CC1 [Example 448, [2-chloro-4-[[3-[3-(trifluoromethyl)-1H-pyrazol-4-yl]imidazo[1,2-a]pyrazin-8-yl]amino]phenyl]-[4-[(2S,4R)-4-hydroxypyrrolidine-2-carbonyl]piperazin-1-yl]methanone formate] — 12-fold lower, 0.235 µM
- O=C(c1ccc(Nc2nccn3c(-c4c[nH]nc4C(F)(F)F)cnc23)cc1Cl)N1CCN(C(=O)C2(O)CCNCC2)CC1 [Example 449, [2-chloro-4-[[3-[3-(trifluoromethyl)-1H-pyrazol-4-yl]imidazo[1,2-a]pyrazin-8-yl]amino]phenyl]-[4-(4-hydroxypiperidine-4-carbonyl)piperazin-1-yl]methanone formate] — 9.1-fold lower, 0.301 µM
- O=C(c1ccc(Nc2nccn3c(-c4c[nH]nc4C(F)(F)F)cnc23)cc1Cl)N1CCN(C(=O)[C@@H]2CCNC[C@@H]2O)CC1 [Example 450, [2-chloro-4-[[3-[3-(trifluoromethyl)-1H-pyrazol-4-yl]imidazo[1,2-a]pyrazin-8-yl]amino]phenyl]-[4-[(3R,4R)-3-hydroxypiperidine-4-carbonyl]piperazin-1-yl]methanone formate] — 9-fold lower, 0.306 µM
- O=C(c1ccc(Nc2nccn3c(-c4c[nH]nc4C(F)(F)F)cnc23)cc1Cl)N1CCN(C(=O)[C@H]2CCNC[C@H]2O)CC1 [Example 451, [2-chloro-4-[[3-[3-(trifluoromethyl)-1H-pyrazol-4-yl]imidazo[1,2-a]pyrazin-8-yl]amino]phenyl]-[4-[(3S,4S)-3-hydroxypiperidine-4-carbonyl]piperazin-1-yl]methanone formate] — 7.5-fold lower, 0.365 µM
- O=C(c1ccc(Nc2nccn3c(-c4c[nH]nc4C(F)(F)F)cnc23)cc1Cl)N1CCN(C(=O)[C@H]2C[C@H](O)CN2)CC1 [Example 452, [2-chloro-4-[[3-[3-(trifluoromethyl)-1H-pyrazol-4-yl]imidazo[1,2-a]pyrazin-8-yl]amino]phenyl]-[4-[(2R,4S)-4-hydroxypyrrolidine-2-carbonyl]piperazin-1-yl]methanone formate] — 6.8-fold lower, 0.401 µM
- O=C(c1ccc(Nc2nccn3c(-c4c[nH]nc4C(F)(F)F)cnc23)cc1Cl)N1CCN(C(=O)[C@H]2CCNC[C@@H]2O)CC1 [Example 453, [2-chloro-4-[[3-[3-(trifluoromethyl)-1H-pyrazol-4-yl]imidazo[1,2-a]pyrazin-8-yl]amino]phenyl]-[4-[(3R,4S)-3-hydroxypiperidine-4-carbonyl]piperazin-1-yl]methanone formate] — 4.7-fold lower, 0.586 µM
- O=C(c1ccc(Nc2nccn3c(-c4c[nH]nc4C(F)(F)F)cnc23)cc1Cl)N1CCN(C(=O)[C@@H]2CCNC[C@H]2O)CC1 [Example 454, [2-chloro-4-[[3-[3-(trifluoromethyl)-1H-pyrazol-4-yl]imidazo[1,2-a]pyrazin-8-yl]amino]phenyl]-[4-[(3S,4R)-3-hydroxypiperidine-4-carbonyl]piperazin-1-yl]methanone formate] — 3.5-fold lower, 0.778 µM
- Cc1cc(Nc2nccn3c(-c4cn(C)nc4C(F)(F)F)cnc23)ccc1C(=O)NCCCNC(=O)[C@@H]1C[C@@H](O)CN1 [Example 455, formic acid; (2S,4R)-4-hydroxy-N-[3-[[2-methyl-4-[[3-[1-methyl-3-(trifluoromethyl)pyrazol-4-yl]imidazo[1,2-a]pyrazin-8-yl]amino]benzoyl]amino]propyl]pyrrolidine-2-carboxamide] — 2.3-fold lower, 1.21 µM

Same assay, conditions: Acinetobacter baumannii, ATCC17961, 16 h, strain ATCC 17961, OD600 growth over 16 h, read-out: A. baumannii ATCC 17961 IC90

Point of comparison: `CCc1cc(Nc2nccn3c(-c4cn(C)nc4C(F)(F)F)cnc23)ccc1C(=O)NCCCNC(=O)[C@@H]1C[C@@H](O)CN1` [Example 437, (2S,4R)-N-[3-[[2-ethyl-4-[[3-[1-methyl-3-(trifluoromethyl)pyrazol-4-yl]imidazo[1,2-a]pyrazin-8-yl]amino]benzoyl]amino]propyl]-4-hydroxypyrrolidine-2-carboxamide], IC90 1.02 µM. Against it:
- Cc1cc(Nc2nccn3c(-c4c[nH]nc4C(F)(F)F)cnc23)ccc1C(=O)N1CCN(C(=O)C2(O)CCCNC2)CC1 (centres unmarked) [Example 436, [4-(3-hydroxypiperidine-3-carbonyl)piperazin-1-yl]-[2-methyl-4-[[3-[3-(trifluoromethyl)-1H-pyrazol-4-yl]imidazo[1,2-a]pyrazin-8-yl]amino]phenyl]methanone hydrochloride] — 1.9-fold lower, 0.536 µM

Same assay, conditions: strain ATCC 17961, OD600 growth over 16 h, read-out: A. baumannii ATCC 17961 IC90

Point of comparison: `Cc1cc(Nc2nccn3c(-c4c[nH]nc4C(F)(F)F)cnc23)ccc1C(=O)N1CCN(C(=O)N[C@H]2CNC[C@@H]2O)CC1` [Example 458, formic acid, N-[(3S,4S)-4-hydroxyppyrrolidin-3-yl]-4-[2-methyl-4-[[3-[3-(trifluoromethyl)-1H-pyrazol-4-yl]imidazo[1,2-a]pyrazin-8-yl]amino]benzoyl]piperazine-1-carboxamide], IC90 0.551 µM. Against it:
- Cc1cc(Nc2nccn3c(-c4c[nH]nc4C(F)(F)F)cnc23)ccc1C(=O)N1CCN(C(=O)N[C@@H]2CNC[C@H]2O)CC1 [Example 457, formic acid, N-[(3R,4R)-4-hydroxypyrrolidin-3-yl]-4-[2-methyl-4-[[3-[3-(trifluoromethyl)-1H-pyrazol-4-yl]imidazo[1,2-a]pyrazin-8-yl]amino]benzoyl]piperazine-1-carboxamide] — within 1.5-fold, 0.442 µM
